SMILES strings stand for the structures.

The target of the assay is T1, recombinant human GR (Homo sapiens, UniProt P04150).
T1 construct: purchased Panvera/Invitrogen P2812 (kit P2893)
T1 sequence (P04150 1-777): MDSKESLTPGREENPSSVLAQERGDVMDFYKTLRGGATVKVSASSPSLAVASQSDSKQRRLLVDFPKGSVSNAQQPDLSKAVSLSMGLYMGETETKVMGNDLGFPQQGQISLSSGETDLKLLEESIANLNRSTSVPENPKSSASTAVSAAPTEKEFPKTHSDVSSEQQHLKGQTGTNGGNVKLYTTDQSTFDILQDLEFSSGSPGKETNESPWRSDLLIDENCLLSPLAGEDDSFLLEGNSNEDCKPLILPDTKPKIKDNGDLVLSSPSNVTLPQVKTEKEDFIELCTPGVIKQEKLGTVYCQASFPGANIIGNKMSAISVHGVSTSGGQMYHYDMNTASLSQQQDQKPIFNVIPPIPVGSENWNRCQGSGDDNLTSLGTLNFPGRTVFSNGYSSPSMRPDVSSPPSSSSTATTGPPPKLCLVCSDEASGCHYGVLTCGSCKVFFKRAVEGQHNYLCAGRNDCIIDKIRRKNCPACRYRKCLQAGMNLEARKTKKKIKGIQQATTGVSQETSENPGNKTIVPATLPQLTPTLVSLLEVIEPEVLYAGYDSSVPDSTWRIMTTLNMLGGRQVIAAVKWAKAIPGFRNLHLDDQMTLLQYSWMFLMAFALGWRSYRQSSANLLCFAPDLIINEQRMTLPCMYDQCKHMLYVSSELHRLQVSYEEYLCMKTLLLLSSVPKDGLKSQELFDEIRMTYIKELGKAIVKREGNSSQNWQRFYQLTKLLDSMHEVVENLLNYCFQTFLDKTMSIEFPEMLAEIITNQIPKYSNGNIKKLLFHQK
The assay can be described thus: Human Glucocorticoid Receptor (GR) Assay, fluorescence polarization. In kind it is binding. The note with it: GS Red tracer, incubated 2 h at r.t., XLfit model 205, read-out: GRhuFL_FP_v2 Mean IC50. An outline of the steps:
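Fluorescence polarization kit assay: recombinant GR and GS Red fluorescent ligand with Stabilizing Peptide and DTT in potassium phosphate/sodium molybdate/EDTA screening buffer. Plates incubated 2 h in the dark at r.t.; DMSO served as 0% and dexamethasone as 100% control.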
For orientation: Polarisation of emitted light reports the rotation of a fluorescent probe.
The term IC50 denotes the concentration that inhibits the measured activity by half. For the compound `COc1cccc([C@@H](Oc2ccc3c(cnn3-c3ccc(F)cc3)c2)[C@H](C)NC(=O)c2cccn2C)c1` [Example 133, N-[(1R,2S)-1-[1-(4-fluorophenyl)indazol-5-yl]oxy-1-(3-methoxyphenyl)propan-2-yl]-1-methyl-pyrrole-2-carboxamide], the half-maximal inhibitory concentration (IC50) stood at 3.3 nM.

Regarding `C[C@H](NC(=O)C(C)(F)F)[C@H](Oc1ccc2c(cnn2-c2ccc(F)cc2)c1)c1ccc(Cl)cc1` [Example 237, N-[(1R,2S)-1-(4-chlorophenyl)-1-[1-(4-fluorophenyl)indazol-5-yl]oxy-propan-2-yl]-2,2-difluoro-propanamide], the IC50 was 8.4 nM.

`Cc1cc(C)c([C@@H](Oc2ccc3c(cnn3-c3ccc(F)cc3)c2)[C@H](C)NC(=O)C(C)(C)C)cc1C` (stereo in doubt) [Example 267, N-[(1R,2S)-1-[1-(4-fluorophenyl)indazol-5-yl]oxy-1-(2,4,5-trimethylphenyl)propan-2-yl]-2,2-dimethyl-propanamide]: the IC50 was 3.7 nM.

For the compound `Cc1ccc([C@@H](Oc2ccc3c(cnn3-c3ccc(F)cc3)c2)[C@H](C)NC(=O)C2(C)CC2)cc1C` [Example 211, N-[(1R,2S)-1-(3,4-dimethylphenyl)-1-[1-(4-fluorophenyl)indazol-5-yl]oxy-propan-2-yl]-1-methyl-cyclopropane-1-carboxamide], the half-maximal inhibitory concentration (IC50) came to 3 nM.

Turning to `COc1ccc([C@@H](Oc2ccc3c(cnn3-c3ccc(F)cc3)c2)[C@H](C)NC(=O)C(F)(F)F)cc1F` [Example 264, 2,2,2-trifluoro-N-[(1R,2S)-1-(3-fluoro-4-methoxy-phenyl)-1-[1-(4-fluorophenyl)indazol-5-yl]oxy-propan-2-yl]acetamide], the IC50 was 6.5 nM.

Regarding `Cc1cnc(C(=O)N[C@@H](C)[C@H](Oc2ccc3c(cnn3-c3ccc(F)cc3)c2)c2cc(C)c(C)cc2C)s1` [Example 206, N-[(1R,2S)-1-[1-(4-fluorophenyl)indazol-5-yl]oxy-1-(2,4,5-trimethylphenyl)propan-2-yl]-5-methyl-1,3-thiazole-2-carboxamide], the IC50 stood at 7.5 nM.

As for `Cc1ccc([C@@H](Oc2ccc3c(cnn3-c3ccc(F)cc3)c2)[C@H](C)NC(=O)C(C)(F)F)cc1F` [Example 229, 2,2-difluoro-N-[(1R,2S)-1-(3-fluoro-4-methyl-phenyl)-1-[1-(4-fluorophenyl)indazol-5-yl]oxy-propan-2-yl]propanamide], the IC50 turned out to be 5.5 nM.

As to `CCSCc1ccc([C@@H](Oc2ccc3c(cnn3-c3ccc(F)cc3)c2)[C@H](C)NC(=O)C(F)(F)F)cc1` [Example 25, N-[(1R,2S)-1-[4-(ethylsulfanylmethyl)phenyl]-1-[1-(4-fluorophenyl)indazol-5-yl]oxy-propan-2-yl]-2,2,2-trifluoro-acetamide], the half-inhibitory concentration (IC50) is 11 nM.

Consider `COc1cccc([C@@H](Oc2ccc3c(cnn3-c3ccc(F)cc3)c2)[C@H](C)NC(=O)c2cc3ccccc3s2)c1` [Example 296, N-[(1R,2S)-1-[1-(4-fluorophenyl)indazol-5-yl]oxy-1-(3-methoxyphenyl)propan-2-yl]benzothiophene-2-carboxamide], for which the 50% inhibitory concentration (IC50) stood at 4 nM.

For `CCC(=O)N[C@@H](C)[C@H](Oc1ccc2c(cnn2-c2ccc(F)cc2)c1)c1ccccc1` [Example 3, N-((1S,2R)-2-{[1-(4-fluorophenyl)-1H-indazol-5-yl]oxy}-1-methyl-2-phenylethyl)propanamide], the 50% inhibitory concentration (IC50) is 3.2 nM.

As for `C[C@H](NC(=O)CO)[C@H](Oc1ccc2c(cnn2-c2ccc(F)cc2)c1)c1ccc(C(F)(F)F)cc1` [Example 60, N-[(1R,2S)-1-[1-(4-fluorophenyl)indazol-5-yl]oxy-1-[4-(trifluoromethyl)phenyl]propan-2-yl]-2-hydroxy-acetamide], the half-maximal inhibitory concentration (IC50) worked out at 3.3 nM.

In the case of `COC(=O)C(=O)N[C@@H](C)[C@H](Oc1ccc2c(cnn2-c2ccc(F)cc2)c1)c1ccccc1` [Example 35, Methyl [(1R,2S)-1-[1-(4-fluorophenyl)indazol-5-yl]oxy-1-phenyl-propan-2-yl]carbamoylformate], the concentration for half-maximal inhibition (IC50) was determined as 2.1 nM.

For the compound `COCC(=O)N[C@@H](C)[C@H](Oc1ccc2c(cnn2-c2ccc(F)cc2)c1)c1ccc(C(F)(F)F)cc1` [Example 59, N-[(1R,2S)-1-[1-(4-fluorophenyl)indazol-5-yl]oxy-1-[4-(trifluoromethyl)phenyl]propan-2-yl]-2-methoxy-acetamide], the half-maximal inhibitory concentration (IC50) came out at 3.3 nM.

For `COc1cccc([C@@H](Oc2ccc3c(cnn3-c3ccc(Cl)cc3)c2)[C@H](C)NC(=O)C(F)(F)F)c1` [Example 126, N-((1R,2S)-1-(1-(4-chlorophenyl)-1H-indazol-5-yloxy)-1-(3-methoxyphenyl)propan-2-yl)-2,2,2-trifluoroacetamide], the concentration for half-maximal inhibition (IC50) came out at 2.9 nM.

For the compound `COc1ccccc1[C@@H](Oc1ccc2c(cnn2-c2ccc(F)cc2)c1)[C@H](C)NC(=O)C(F)(F)F` [Example 164, 2,2,2-trifluoro-N-[(1R,2S)-1-[1-(4-fluorophenyl)indazol-5-yl]oxy-1-(2-methoxyphenyl)propan-2-yl]acetamide], the IC50 came out at 4.2 nM.

Take `C[C@H](NC(=O)C(F)(F)F)[C@H](Oc1ccc2c(cnn2-c2ccc(F)cc2)c1)c1ccc2c(c1)OCC2` [Example 307, N-((1R,2S)-1-(2,3-dihydrobenzofuran-6-yl)-1-(1-(4-fluorophenyl)-1H-indazol-5-yloxy)propan-2-yl)-2,2,2-trifluoroacetamide]: the IC50 turned out to be 4.8 nM.

Turning to `C[C@H](NC(=O)C(C)(C)F)[C@H](Oc1ccc2c(cnn2-c2ccc(F)cc2)c1)c1ccc(F)c(F)c1` [Example 241, N-[(1R,2S)-1-(3,4-difluorophenyl)-1-[1-(4-fluorophenyl)indazol-5-yl]oxy-propan-2-yl]-2-fluoro-2-methyl-propanamide], the concentration for half-maximal inhibition (IC50) was found to be 4.9 nM.

Consider `C[C@H](NC(=O)C(C)(C)C)[C@H](Oc1ccc2c(cnn2-c2ccc(F)cc2)c1)c1ccccc1Cl` [Example 300, N-((1R,2S)-1-(2-chlorophenyl)-1-(1-(4-fluorophenyl)-1H-indazol-5-yloxy)propan-2-yl)pivalamide], for which the IC50 was found to be 2.4 nM.

Take `COc1c(C)cc([C@@H](Oc2ccc3c(cnn3-c3ccc(F)cc3)c2)[C@H](C)NC(=O)C(F)(F)F)cc1C` [Example 159, 2,2,2-trifluoro-N-[(1R,2S)-1-[1-(4-fluorophenyl)indazol-5-yl]oxy-1-(4-methoxy-3,5-dimethyl-phenyl)propan-2-yl]acetamide]: the IC50 worked out at 4.2 nM.

Take `COCC(=O)N[C@@H](C)[C@H](Oc1ccc2c(cnn2-c2ccc(F)cc2)c1)c1ccc(SC)cc1` [Example 9, N-[(1R,2S)-1-[1-(4-fluorophenyl)indazol-5-yl]oxy-1-(4-methylsulfanylphenyl)propan-2-yl]-2-methoxy-acetamide]: the IC50 is 2 nM.

Regarding `C[C@H](NC(=O)C(C)(C)C)[C@H](Oc1ccc2c(cnn2-c2ccc(F)cc2)c1)c1ccc(C(C)(C)C)cc1` [Example 186, N-[(1R,2S)-1-[1-(4-fluorophenyl)indazol-5-yl]oxy-1-(4-tert-butylphenyl)propan-2-yl]-2,2-dimethyl-propanamide], the concentration for half-maximal inhibition (IC50) is 6.6 nM.

For `Cc1cnc(C(=O)N[C@@H](C)[C@H](Oc2ccc3c(cnn3-c3ccc(F)cc3)c2)c2cc(F)cc(Cl)c2)s1` [Example 205, N-[(1R,2S)-1-(3-chloro-5-fluoro-phenyl)-1-[1-(4-fluorophenyl)indazol-5-yl]oxy-propan-2-yl]-5-methyl-1,3-thiazole-2-carboxamide], the half-inhibitory concentration (IC50) worked out at 6.6 nM.
